Experimental data published in patent US11957759B1, “Rapidly accelerated fibrosarcoma (RAF) degrading compounds and associated methods of use” (Arvinas Operations, Inc., priority 2022, dated 2024).

Columns and labels:
B-RAF V600E = target: T1, B-RAF V600E (Homo sapiens, UniProt P15056, V600E); assay: Target protein degradation, assay C: T-Rex 293 cells, HA-BRAF_V600E, 384 well format; assay type: cell-based; details: T-Rex 293 HA-BRAF_V600E cells, 24 hours, Examples 83-269; for DC50: Assay C; for Dmax: T-REx-293, Assay C
T1 construct: expressed in transfected cells; host or cells: T-Rex 293 cells (Invitrogen #R71007)
Summary of the method: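 T-Rex 293 cells stably expressing doxycycline-induced (1 ng/mL) HA-BRAF V600E were treated 24 h at 37 °C with compound (300 nM–5 pM, 11 points, 0.5% DMSO). HA immunofluorescence was quantified by high-content imaging to give DC50 and Dmax (% of control); nuclei counts versus DMSO gauged toxicity.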

B-RAF G466V = target: T2, B-RAF G466V (Homo sapiens, UniProt P15056, G466V); assay: Target protein degradation, assay D: T-Rex 293 cells, HA-BRAF_G466V, 384 well format; assay type: cell-based; details: T-Rex 293 HA-BRAF_G466V cells, 24 hours, Examples 83-269; for DC50: Assay D; for Dmax: T-REx-293, Assay D
T2 construct: expressed in transfected cells; host or cells: T-Rex 293 cells (Invitrogen #R71007)
Summary of the method: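 T-Rex 293 cells stably expressing doxycycline-induced (1 ng/mL) HA-BRAF G466V treated 24 h at 37 °C with PROTACs, 11-point 1:3 dilution, 300 nM to 5 pM final, 0.5% DMSO. Fixed cells immunostained for HA and imaged by high-content microscopy; DC50 and Dmax (% of control) derived, toxicity from nuclei counts versus DMSO.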

T1 sequence (P15056 whole entry V600E): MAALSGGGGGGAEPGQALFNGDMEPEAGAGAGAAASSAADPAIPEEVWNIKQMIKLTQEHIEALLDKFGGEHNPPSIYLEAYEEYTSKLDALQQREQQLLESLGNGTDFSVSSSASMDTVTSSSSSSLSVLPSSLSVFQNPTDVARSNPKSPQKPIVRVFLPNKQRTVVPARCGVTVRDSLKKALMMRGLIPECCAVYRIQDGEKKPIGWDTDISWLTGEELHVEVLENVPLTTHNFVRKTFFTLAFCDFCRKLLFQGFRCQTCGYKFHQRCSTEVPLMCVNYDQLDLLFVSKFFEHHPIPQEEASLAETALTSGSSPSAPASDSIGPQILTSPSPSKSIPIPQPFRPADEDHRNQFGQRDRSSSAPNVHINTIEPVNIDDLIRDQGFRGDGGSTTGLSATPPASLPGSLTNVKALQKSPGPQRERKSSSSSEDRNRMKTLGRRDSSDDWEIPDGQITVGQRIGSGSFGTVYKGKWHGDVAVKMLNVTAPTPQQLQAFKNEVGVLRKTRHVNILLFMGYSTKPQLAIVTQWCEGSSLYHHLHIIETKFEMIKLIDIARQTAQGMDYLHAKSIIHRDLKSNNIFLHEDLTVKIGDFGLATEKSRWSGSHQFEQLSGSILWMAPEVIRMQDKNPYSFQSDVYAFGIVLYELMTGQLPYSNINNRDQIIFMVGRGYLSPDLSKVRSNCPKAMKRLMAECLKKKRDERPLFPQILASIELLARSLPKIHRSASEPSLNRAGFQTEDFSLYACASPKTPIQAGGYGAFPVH
T2 sequence (P15056 whole entry G466V): as the sequence (P15056 whole entry V600E) above, with G466V, E600V counted along it

Row | SMILES | DC50 (B-RAF V600E) [nM] | Dmax (B-RAF V600E) [%] | DC50 (B-RAF G466V) [nM] | Dmax (B-RAF G466V) [%]
1 | N#Cc1c(NS(=O)(=O)N2CC[C@@H](F)C2)ccc(F)c1Oc1ccc2ncn(-c3ccc(N4CC5(CC(CN6CCC(c7ccc8c(c7)CN(C7CCC(=O)NC7=O)C8=O)CC6)C5)C4)cc3)c(=O)c2c1 (stereo partly drawn) [Example 190, (3R)-N-{2-cyano-3-[(3-(4-[6-({4-[2-(2,6-dioxopiperidin-3-yl)-1-oxo-2,3-dihydro-1H-isoindol-5-yl]piperidin-1-yl}methyl)-2-azaspiro[3.3]heptan-2-yl]phenyl}-4-oxo-3,4-dihydroquinazolin-6-yl)oxy]-4-fluorophenyl}-3-fluoropyrrolidine-1-sulfonamide] | 50 to 500 | 35 to 70 | 1 to 10 | 35 to 70
2 | N#Cc1c(NS(=O)(=O)N2CC[C@@H](F)C2)ccc(F)c1Oc1ccc2ncn(-c3ccc(N4CC5(CC(CN6CCN(c7ccc8c(c7)CN([C@H]7CCC(=O)NC7=O)C8=O)CC6)C5)C4)cc3)c(=O)c2c1 [Example 191, (3R)-N-(2-cyano-3-{[3-(4-{6-[(4-{2-[(3S)-2,6-dioxopiperidin-3-yl]-1-oxo-2,3-dihydro-1H-isoindol-5-yl}piperazin-1-yl)methyl]-2-azaspiro[3.3]heptan-2-yl}phenyl)-4-oxo-3,4-dihydroquinazolin-6-yl]oxy}-4-fluorophenyl)-3-fluoropyrrolidine-1-sulfonamide] | 50 to 500 | 35 to 70 | 1 to 10 | 35 to 70
3 | N#Cc1c(NS(=O)(=O)N2CC[C@@H](F)C2)ccc(F)c1Oc1ccc2ncn(-c3ccc(N4CC5(CCN(CC6CCN(c7ccc8c(c7)CN([C@H]7CCC(=O)NC7=O)C8=O)CC6)CC5)C4)cc3)c(=O)c2c1 [Example 192, (3R)-N-(2-cyano-3-{[3-(4-{7-[(1-{2-[(3S)-2,6-dioxopiperidin-3-yl]-1-oxo-2,3-dihydro-1H-isoindol-5-yl}piperidin-4-yl)methyl]-2,7-diazaspiro[3.5]nonan-2-yl}phenyl)-4-oxo-3,4-dihydroquinazolin-6-yl]oxy}-4-fluorophenyl)-3-fluoropyrrolidine-1-sulfonamide] | 50 to 500 | 35 to 70 | 1 to 10 | 35 to 70
4 | N#Cc1c(NS(=O)(=O)N2CC[C@@H](F)C2)ccc(F)c1Oc1ccc2ncn(-c3ccc(N4CC5(CCN(CC6CCN(c7ccc8c(c7)CN([C@@H]7CCC(=O)NC7=O)C8=O)CC6)CC5)C4)cc3)c(=O)c2c1 [Example 193, (3R)-N-(2-cyano-3-{[3-(4-{7-[(1-{2-[(3R)-2,6-dioxopiperidin-3-yl]-1-oxo-2,3-dihydro-1H-isoindol-5-yl}piperidin-4-yl)methyl]-2,7-diazaspiro[3.5]nonan-2-yl}phenyl)-4-oxo-3,4-dihydroquinazolin-6-yl]oxy}-4-fluorophenyl)-3-fluoropyrrolidine-1-sulfonamide] | 50 to 500 | 35 to 70 | 1 to 10 | 35 to 70
5 | N#Cc1c(NS(=O)(=O)N2CCC(F)C2)ccc(F)c1Oc1ccc2ncn(-c3ccc(N4CCN(CC5CN(c6ccc7c(c6)CN(C6CCC(=O)NC6=O)C7=O)C5)CC4)cc3)c(=O)c2c1 (centres unmarked) [Example 194, N-{2-cyano-3-[(3-{4-[4-({1-[2-(2,6-dioxopiperidin-3-yl)-1-oxo-2,3-dihydro-1H-isoindol-5-yl]azetidin-3-yl}methyl)piperazin-1-yl]phenyl}-4-oxo-3,4-dihydroquinazolin-6-yl)oxy]-4-fluorophenyl}-3-fluoropyrrolidine-1-sulfonamide] | 50 to 500 | ≤ 35 | 1 to 10 | 35 to 70
6 | N#Cc1c(NS(=O)(=O)N2CC[C@H](F)C2)ccc(F)c1Oc1ccc2ncn(-c3ccc(N4CCN(CC5CN(c6ccc7c(c6)CN([C@H]6CCC(=O)NC6=O)C7=O)C5)CC4)cc3)c(=O)c2c1 [Example 195, (3S)-N-(2-cyano-3-{[3-(4-{4-[(1-{2-[(3S)-2,6-dioxopiperidin-3-yl]-1-oxo-2,3-dihydro-1H-isoindol-5-yl}azetidin-3-yl)methyl]piperazin-1-yl}phenyl)-4-oxo-3,4-dihydroquinazolin-6-yl]oxy}-4-fluorophenyl)-3-fluoropyrrolidine-1-sulfonamide] | 50 to 500 | ≤ 35 | 1 to 10 | ≤ 35
7 | N#Cc1c(NS(=O)(=O)N2CC[C@H](F)C2)ccc(F)c1Oc1ccc2ncn(-c3ccc(N4CCN(CC5CN(c6ccc7c(c6)CN([C@@H]6CCC(=O)NC6=O)C7=O)C5)CC4)cc3)c(=O)c2c1 [Example 196, (3S)-N-(2-cyano-3-{[3-(4-{4-[(1-{2-[(3R)-2,6-dioxopiperidin-3-yl]-1-oxo-2,3-dihydro-1H-isoindol-5-yl}azetidin-3-yl)methyl]piperazin-1-yl}phenyl)-4-oxo-3,4-dihydroquinazolin-6-yl]oxy}-4-fluorophenyl)-3-fluoropyrrolidine-1-sulfonamide] | 50 to 500 | 35 to 70 | 1 to 10 | 35 to 70
8 | O=C1CCC(N2Cc3cc(N4CCC(CN5CCN(c6ccc(-n7cnc8ccc(Oc9c(F)ccc(NS(=O)(=O)N%10CC[C@@H](F)C%10)c9Cl)cc8c7=O)cc6)CC5)CC4)ccc3C2=O)C(=O)N1 (stereo partly drawn) [Example 199, (3R)-N-{2-chloro-3-[(3-{4-[4-({1-[2-(2,6-dioxopiperidin-3-yl)-1-oxo-2,3-dihydro-1H-isoindol-5-yl]piperidin-4-yl}methyl)piperazin-1-yl]phenyl}-4-oxo-3,4-dihydroquinazolin-6-yl)oxy]-4-fluorophenyl}-3-fluoropyrrolidine-1-sulfonamide] | 50 to 500 | 35 to 70 | 1 to 10 | 35 to 70
9 | N#Cc1c(NS(=O)(=O)N2CC[C@@H](F)C2)ccc(F)c1Oc1ccc2ncn(-c3ccc(N4CCC5(CCN(CC6CCN(c7ccc8c(c7)CN([C@H]7CCC(=O)NC7=O)C8=O)CC6)CC5)CC4)cc3)c(=O)c2c1 [Example 200, (3R)-N-(2-cyano-3-{[3-(4-{9-[(1-{2-[(3S)-2,6-dioxopiperidin-3-yl]-1-oxo-2,3-dihydro-1H-isoindol-5-yl}piperidin-4-yl)methyl]-3,9-diazaspiro[5.5]undecan-3-yl}phenyl)-4-oxo-3,4-dihydroquinazolin-6-yl]oxy}-4-fluorophenyl)-3-fluoropyrrolidine-1-sulfonamide] | 50 to 500 | 35 to 70 | 1 to 10 | 35 to 70
10 | N#Cc1c(NS(=O)(=O)N2CC[C@@H](F)C2)ccc(F)c1Oc1ccc2ncn(-c3ccc(N4CCC5(CCN(CC6CCN(c7ccc8c(c7)CN([C@@H]7CCC(=O)NC7=O)C8=O)CC6)CC5)CC4)cc3)c(=O)c2c1 [Example 201, (3R)-N-(2-cyano-3-{[3-(4-{9-[(1-{2-[(3R)-2,6-dioxopiperidin-3-yl]-1-oxo-2,3-dihydro-1H-isoindol-5-yl}piperidin-4-yl)methyl]-3,9-diazaspiro[5.5]undecan-3-yl}phenyl)-4-oxo-3,4-dihydroquinazolin-6-yl]oxy}-4-fluorophenyl)-3-fluoropyrrolidine-1-sulfonamide] | 50 to 500 | 35 to 70 | 1 to 10 | 35 to 70
11 | N#Cc1c(NS(=O)(=O)N2CC[C@@H](F)C2)ccc(F)c1Oc1ccc2ncn(-c3ccc(N4CCC5(CC4)CN(CC4CCN(c6ccc7c(c6)CN([C@H]6CCC(=O)NC6=O)C7=O)CC4)C5)cc3)c(=O)c2c1 [Example 202, (3R)-N-(2-cyano-3-{[3-(4-{2-[(1-{2-[(3S)-2,6-dioxopiperidin-3-yl]-1-oxo-2,3-dihydro-1H-isoindol-5-yl}piperidin-4-yl)methyl]-2,7-diazaspiro[3.5]nonan-7-yl}phenyl)-4-oxo-3,4-dihydroquinazolin-6-yl]oxy}-4-fluorophenyl)-3-fluoropyrrolidine-1-sulfonamide] | 50 to 500 | 35 to 70 | 1 to 10 | 35 to 70
12 | N#Cc1c(NS(=O)(=O)N2CC[C@@H](F)C2)ccc(F)c1Oc1ccc2ncn(-c3ccc(N4CCC5(CC4)CN(CC4CCN(c6ccc7c(c6)CN([C@@H]6CCC(=O)NC6=O)C7=O)CC4)C5)cc3)c(=O)c2c1 [Example 203, (3R)-N-(2-cyano-3-{[3-(4-{2-[(1-{2-[(3R)-2,6-dioxopiperidin-3-yl]-1-oxo-2,3-dihydro-1H-isoindol-5-yl}piperidin-4-yl)methyl]-2,7-diazaspiro[3.5]nonan-7-yl}phenyl)-4-oxo-3,4-dihydroquinazolin-6-yl]oxy}-4-fluorophenyl)-3-fluoropyrrolidine-1-sulfonamide] | 50 to 500 | 35 to 70 | 1 to 10 | 35 to 70
13 | N#Cc1c(NS(=O)(=O)N2CC[C@@H](F)C2)ccc(F)c1Oc1ccc2ncn(-c3ccc(N4CC(CN5CC(c6ccc7c(c6)CN([C@H]6CCC(=O)NC6=O)C7=O)C5)C4)cc3)c(=O)c2c1 [Example 204] | 50 to 500 | 35 to 70 | 1 to 10 | ≤ 35
14 | N#Cc1c(NS(=O)(=O)N2CC[C@@H](F)C2)ccc(F)c1Oc1ccc2ncn(-c3ccc(N4CC(CN5CC(c6ccc7c(c6)CN([C@@H]6CCC(=O)NC6=O)C7=O)C5)C4)cc3)c(=O)c2c1 [Example 205, (3R)-N-(2-cyano-3-{[3-(4-{3-[(3-{2-[(3R)-2,6-dioxopiperidin-3-yl]-1-oxo-2,3-dihydro-1H-isoindol-5-yl}azetidin-1-yl)methyl]azetidin-1-yl}phenyl)-4-oxo-3,4-dihydroquinazolin-6-yl]oxy}-4-fluorophenyl)-3-fluoropyrrolidine-1-sulfonamide] | 50 to 500 | ≤ 35 | 1 to 10 | ≤ 35
